Measurements published in ChEMBL document CHEMBL5143553, “Structure-activity relationship and mechanistic study on guggulsterone derivatives; Discovery of new anti-pancreatic cancer candidate” (Bioorg Med Chem, 2022).
The source made the active and inactive calls. No cut-off for these calls is given here.

How the values were obtained:
PANC-1 [1] = experiment: Preferential cytotoxic activity against human PANC-1 cells in nutrient-deprived medium; format: functional
PANC-1 [2] = experiment: Preferential cytotoxic activity against human PANC-1 cells in Dulbecco's modified Eagle's medium; format: functional, cell-based
[3] = Selectivity index, ratio of PC50 for Preferential cytotoxic activity against human PANC-1 cells in Dulbecco's modified Eagle's medium to PC50 for Preferential cytotoxic activity against human PANC-1 cells in nutrient-deprived medium; format: functional
PANC-1 [4] = experiment: Induction of morphological changes in human PANC-1 cells in nutrient-deprived medium assessed as induction of cell rounding and shrinkage at 10 uM within 24 hrs by Cyto-smart Lux2 live cell imaging based method; format: functional
PANC-1 [5] = experiment: Induction of morphological changes in human PANC-1 cells in nutrient-deprived medium assessed as induction of leakage of intracellular components into the media at 10 uM within 24 hrs by Cyto-smart Lux2 live cell imaging based method; format: functional
PANC-1 [6] = experiment: Induction of cell death in human PANC-1 cells in nutrient-deprived medium at 10 uM after 24 hrs by ethidium bromide-acridine orange double-staining assay; format: functional, cell-based
PANC-1 [7] = experiment: Inhibition of cell migration in human PANC-1 cells in DMEM medium assessed as wound area level at 3 uM after 24 hrs by wound-healing assay relative to initial area (reference value: 55%); format: functional; design: scale not given: the % may be the effect or the level left
PANC-1 [8] = experiment: Inhibition of cell migration in human PANC-1 cells in DMEM medium assessed as wound area level at 5 uM after 24 hrs by wound-healing assay relative to initial area (reference value: 55%); format: functional; design: scale not given: the % may be the effect or the level left
PANC-1 [9] = experiment: Inhibition of cell migration in human PANC-1 cells in DMEM medium assessed as wound area level at 3 uM after 48 hrs by wound-healing assay relative to initial area (reference value: 23%); format: functional; design: scale not given: the % may be the effect or the level left
PANC-1 [10] = experiment: Inhibition of cell migration in human PANC-1 cells in DMEM medium assessed as wound area level at 5 uM after 48 hrs by wound-healing assay relative to initial area (reference value: 23%); format: functional; design: scale not given: the % may be the effect or the level left
PANC-1 [11] = experiment: Inhibition of colony formation in human PANC-1 cells in DMEM medium at 1 uM incubated for 10 days relative to control; format: functional; settings: PANC-1, 240 h, time 10 day
PANC-1 [12] = experiment: Inhibition of colony formation in human PANC-1 cells in DMEM medium at 3 uM incubated for 10 days relative to control; format: functional; settings: PANC-1, 240 h, time 10 day
PANC-1 [13] = experiment: Inhibition of colony formation in human PANC-1 cells in DMEM medium at 5 uM incubated for 10 days relative to control; format: functional; settings: PANC-1, 240 h, time 10 day
[14] = molecular target: T1, Serine/threonine-protein kinase AKT (Homo sapiens) (UniProt P31751+Q9Y243+P31749); experiment: Inhibition of Akt S473 phosphorylation in human PANC-1 cells in NDM medium at 2.5 to 10 uM incubated for 6 hrs by Western blot analysis; format: cell-based; settings: dose 2.5-10 µM
T1 sequence (P31749 whole entry, looked up): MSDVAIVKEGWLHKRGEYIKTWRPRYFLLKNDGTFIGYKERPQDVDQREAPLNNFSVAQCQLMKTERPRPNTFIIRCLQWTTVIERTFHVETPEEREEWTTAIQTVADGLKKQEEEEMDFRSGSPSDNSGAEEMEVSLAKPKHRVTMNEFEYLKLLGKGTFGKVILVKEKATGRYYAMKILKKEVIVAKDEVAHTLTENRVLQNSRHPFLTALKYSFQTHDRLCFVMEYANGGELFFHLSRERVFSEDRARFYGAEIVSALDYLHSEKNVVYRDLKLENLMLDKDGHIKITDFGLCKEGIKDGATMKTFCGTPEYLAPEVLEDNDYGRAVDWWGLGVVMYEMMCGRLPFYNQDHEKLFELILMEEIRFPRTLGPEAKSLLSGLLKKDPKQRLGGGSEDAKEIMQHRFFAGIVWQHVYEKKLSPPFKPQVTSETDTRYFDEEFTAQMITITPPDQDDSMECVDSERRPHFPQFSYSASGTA
T1 sequence (P31751 whole entry, looked up): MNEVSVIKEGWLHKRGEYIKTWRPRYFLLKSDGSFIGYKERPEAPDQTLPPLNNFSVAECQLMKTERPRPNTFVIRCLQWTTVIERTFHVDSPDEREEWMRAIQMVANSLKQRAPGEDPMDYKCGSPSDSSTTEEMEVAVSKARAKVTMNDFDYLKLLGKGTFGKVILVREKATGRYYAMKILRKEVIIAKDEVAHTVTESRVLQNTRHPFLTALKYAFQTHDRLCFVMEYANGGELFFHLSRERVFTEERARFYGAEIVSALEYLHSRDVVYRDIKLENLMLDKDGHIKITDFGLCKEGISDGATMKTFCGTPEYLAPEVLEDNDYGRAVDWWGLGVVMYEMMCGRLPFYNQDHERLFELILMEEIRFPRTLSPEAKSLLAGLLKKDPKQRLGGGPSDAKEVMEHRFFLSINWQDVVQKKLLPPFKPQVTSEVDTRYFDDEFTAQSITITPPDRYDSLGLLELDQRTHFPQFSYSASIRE
T1 sequence (Q9Y243 whole entry, looked up): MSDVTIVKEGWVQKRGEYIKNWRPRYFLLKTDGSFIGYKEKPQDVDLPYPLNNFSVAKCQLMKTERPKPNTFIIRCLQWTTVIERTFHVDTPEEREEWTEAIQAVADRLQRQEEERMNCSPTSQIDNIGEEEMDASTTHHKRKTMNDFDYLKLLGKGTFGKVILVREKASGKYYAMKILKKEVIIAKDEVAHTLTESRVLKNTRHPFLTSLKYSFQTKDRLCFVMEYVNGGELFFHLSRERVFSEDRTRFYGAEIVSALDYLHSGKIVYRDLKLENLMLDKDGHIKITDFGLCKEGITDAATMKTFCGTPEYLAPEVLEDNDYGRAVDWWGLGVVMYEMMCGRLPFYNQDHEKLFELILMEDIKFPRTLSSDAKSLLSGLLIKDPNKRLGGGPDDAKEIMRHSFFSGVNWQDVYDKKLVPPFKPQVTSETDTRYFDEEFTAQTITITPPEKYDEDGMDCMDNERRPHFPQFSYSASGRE

[15] = molecular target: T1, Serine/threonine-protein kinase AKT (Homo sapiens); experiment: Inhibition of Akt S473 phosphorylation in human PANC-1 cells in DMEM medium at 10 uM incubated for 6 hrs by Western blot analysis; format: cell-based
[16] = molecular target: T1, Serine/threonine-protein kinase AKT (Homo sapiens); experiment: Inhibition of Akt signaling in human PANC-1 cells assessed as reduction in mTOR […] phosphorylation in NDM medium at 10 uM incubated for 6 hrs by Western blot analysis; format: cell-based
PANC-1 [17] = experiment: Effect on Akt protein expression in human PANC-1 cells in DMEM medium at 1 to 10 uM incubated for 6 hrs by Western blot analysis; format: functional, cell-based; settings: dose 1-10 µM
PANC-1 [18] = experiment: Effect on mTOR protein expression in human PANC-1 cells in DMEM medium at 1 to 10 uM incubated for 6 hrs by Western blot analysis; format: functional, cell-based; settings: dose 1-10 µM
PANC-1 [19] = experiment: Effect on mTOR protein expression in human PANC-1 cells in NDM medium at 1 to 10 uM incubated for 6 hrs by Western blot analysis; format: functional, cell-based; settings: dose 1-10 µM
PANC-1 [20] = experiment: Effect on […] protein expression in human PANC-1 cells in NDM medium at 1 to 10 uM incubated for 6 hrs by Western blot analysis; format: functional, cell-based; settings: dose 1-10 µM

| SMILES | PC50 (PANC-1 [1]) | IC50 (PANC-1 [2]) | Selectivity Index [3] | other results |
| --- | --- | --- | --- | --- |
| C=C1C(F)(F)C[C@H]2[C@@H]3CCC4=CC(=O)CC[C@]4(C)[C@H]3CC[C@]12C | 14 µM | > 100 µM | >7.1 |  |
| C/C=C1/CC[C@H]2[C@@H]3CCC4=CC(=O)CC[C@]4(C)[C@H]3CC[C@]12C | 3.2 µM | > 100 µM | >31 |  |
| CCO[C@H]1CCCC2=CC(=O)CC[C@@]21C | >100 µM | > 100 µM |  |  |
| C=C1[C@H](O)C[C@H]2[C@@H]3CCC4=CC(=O)CC[C@]4(C)[C@H]3CC[C@]12C | 57 µM | > 100 µM |  |  |
| C[C@]12CC[C@H]3[C@@H](CCC4=CC(=O)CC[C@@]43C)[C@@H]1CC(=O)[C@@H]2CSCCO | 53 µM | 100 µM |  |  |
| C[C@]12CCC(=O)C=C1CC[C@@H]1[C@@H]2CC[C@]2(C)C(=C(F)F)[C@H](O)C[C@@H]12 | 18 µM | 51 µM | 2.8 |  |
| C=C1C(=O)C[C@H]2[C@@H]3CC[C@H]4CC(=O)CC[C@]4(C)[C@H]3CC[C@]12C | 0.72 µM | 3.5 µM | 4.9 | Activity (PANC-1 [4]): Active; Activity (PANC-1 [5]): Active; Activity (PANC-1 [6]): Active; Activity (PANC-1 [7]): 70%; Activity (PANC-1 [8]): 85%; Activity (PANC-1 [9]): 45%; Activity (PANC-1 [10]): 70%; inhibition at 1 µM (PANC-1 [11]): > 50.9%; inhibition at 3 µM (PANC-1 [12]): 97.7%; inhibition at 5 µM (PANC-1 [13]): 100%; inhibition [14]: Active; inhibition [15]: Active; inhibition [16]: Active; Activity (PANC-1 [17]): Non-Toxic; Activity (PANC-1 [18]): Non-Toxic; Activity (PANC-1 [19]): Non-Toxic; Activity (PANC-1 [20]): Non-Toxic |
| C=C1C(=O)C[C@H]2[C@@H]3CC[C@H]4CCCC[C@]4(C)[C@H]3CC[C@]12C | 0.8 µM | 3 µM | 3.8 |  |
| C[C@]12CCC(=O)C=C1CC[C@@H]1[C@@H]2CC[C@]2(C)C(=C(F)F)CC[C@@H]12 | 5.2 µM | 91 µM | 18 |  |
| C/C=C1/C(=O)C[C@H]2[C@@H]3CCC4=CC(=O)CC[C@]4(C)[C@H]3CC[C@]12C | Active |  |  |  |
| C=C1[C@H](OCOC)C[C@H]2[C@@H]3CCC4=CC(=O)CC[C@]4(C)[C@H]3CC[C@]12C | 31 µM | 100 µM | 3.2 |  |
| COCO[C@@H]1C[C@H]2[C@@H]3CCC4=CC(=O)CC[C@]4(C)[C@H]3CC[C@]2(C)C1=C(F)F | 9.2 µM | 29 µM | 3.2 |  |
| C=C1C(=O)C[C@H]2[C@@H]3CCC4=CC(=O)CC[C@]4(C)[C@H]3CC[C@]12C | 1.6 µM |  | 6.9 |  |
| C=C1CC[C@H]2[C@@H]3CCC4=CC(=O)CC[C@]4(C)[C@H]3CC[C@]12C | 3.5 µM | 50 µM | 14 |  |
| CC(=O)O[C@H]1CCCC2=CC(=O)CC[C@@]21C | >100 µM | > 100 µM |  |  |
